Source: patent publication US20240368163A1, “COMPOUNDS AND METHODS FOR MODULATING SPLICING” (REMIX THERAPEUTICS INC., priority 2021, published 2024)
Like-named read-outs stand apart in the source and are kept apart here.

What was measured:
[1] = Transwell assay for membrane efflux and permeability; format: in vitro ADME, Canine; settings: dog; MDCK-BCRP or MDCKII-MDR1 transwell, test compound 1 μM, 2 hours at 37° C.
From the text: Compounds described herein were screened for cell membrane permeability and efflux in a transwell assay using Madin-Darby Canine Kidney (MDCK) cells expressing Breast Cancer Resistance Protein (BCRP) or subclone MDCKII cells expressing Multidrug Resistance Protein 1 (MDR1).
MDCK-BCRP or MDCKII-MDR1 Cells: The Netherlands Cancer Institute, High Glucose Dulbecco's Modified Eagle's Medium (DMEM): Gibco/Thermo Fisher Scientific, Fetal Bovine Serum (FBS): Coming, Hank's Balanced Salt Solution (HBSS) and Trypsin/EDTA: Gibco/Thermo Fisher Scientific, HTS Transwell-96 Well Permeable Supports: Coming Corporation, Millicell Epithelial Volt-Ohm: Millipore, Cellometer® Vision: Nexcelom Bioscience LLC, Infinite 200 PRO microplate reader: Tecan, MTS2/4 orbital shaker: IKA Labortechnik, HEPES/Penicillin/Streptomycin: Solarbio.
MDCK-BCRP or MDCKII-MDR1 cells were seeded to each of the wells of the transwell plate at a density of 1.6×10^6 cells/mL and the plate was incubated for 4-8 days with medium changes every two days. To perform the drug transport assay, cell monolayers were first washed three times with pre-warmed HBSS and then incubated with gentle shaking (150 rpm) for 30 min at 37° C. Stock solutions of test compounds (e.g., exemplary compounds of Formulas (I), (II), and (III)) and control compounds (e.g., metoprolol, prazosin, and/or imatinib) were prepared in DMSO and adjusted to a working solution using HBSS. The final concentration of test compounds was 1 μM with DMSO; 0.5%. The plates were incubated at 37° C. for 2 hours.

MYB = assay: Splicing RT-qPCR assay, MYB mRNA canonical junction (CJ) and alternative junction (AJ); format: cell-based, human; settings: for AC50: increase in AJ mRNA
How it was run: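 First, A673 cells adhered 24 h, while K562 cells were plated directly. Next, compounds were added as an 11-point 3-fold series from 10 uM for 24 h. Finally, lysates went to RT-qPCR, with 2^(−ΔΔCt) values converted to percentage response.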

[2] = Homo sapiens, 24 h, decrease in CJ mRNA, A673 or K562 cells, 24 hours treatment, RT-qPCR, read-out: MYB CJ IC50
[3] = Homo sapiens, 24 h, A673 or K562 cells, 24 hours treatment, RT-qPCR
[4] = Homo sapiens, RT-qPCR panel, canonical junction mRNA, compound concentration having 50% response in CJ decrease, read-out: MYB IC50 (decrease in CJ mRNA levels)

Row | SMILES | Papp at 2 h, 1 μM [1] [×10⁻⁶ cm/s] | efflux ratio at 2 h, 1 μM [1] | IC50 (MYB; [2]) [nM] | AC50 (MYB; [3]) [nM] | IC50 (MYB; [4]) [nM] | IC50 (MYB; RT-qPCR panel, canonical junction mRNA, compound concentration having 50% response in CJ decrease, read-out: MYB IC50 (decrease in CJ mRNA levels)) [nM] | IC50 (MYB; decrease in CJ mRNA, A673 or K562 cells, 24 hours treatment, RT-qPCR, read-out: MYB CJ IC50) [nM] | IC50 (MYB; Homo sapiens, gene panel, CJ qPCR, protocol of Example 142, read-out: MYB IC50 (decrease in CJ mRNA levels)) [nM]
1 | COc1cc(-c2ccc(-c3ccc(N(C)C4CC(C)(C)NC(C)(C)C4)nn3)c3scnc23)cnn1 [Compound 330] | 2 to 6 | > 5 | 100 to 1000 | 100 to 1000 | 100 to 1000 | – | – | –
2 | CC(C)(C)NC1CCN(c2ccc(-c3ccc(-c4cn[nH]c4)c4ncsc34)nn2)C1 (stereo not shown) [Compound 336] | 2 to 6 | > 5 | – | – | – | 100 to 1000 | 100 to 1000 | –
3 | c1nc2c(-c3cn[nH]c3)ccc(-c3ccc(N4CCC(NC5CC5)C4)nn3)c2s1 (stereo not shown) [Compound 337] | 2 to 6 | < 1.5 | > 10000 | > 10000 | > 10000 | – | – | –
4 | Fc1cc(-c2ccc(N[C@@H]3C[C@H]4CC[C@@H](C3)N4)nn2)c2scnc2c1-c1cn[nH]c1 [Compound 339] | < 2 | 1.5 to 5 | < 100 | < 100 | < 100 | – | – | –
5 | Cc1ncc(-c2ccc(-c3ccc(O[C@@H]4C[C@H]5CC[C@@H](C4)N5)nn3)c3scnc23)s1 [Compound 348, 7-{6-[(exo)-8-azabicyclo[3.2.1]octan-3-yloxy]pyridazin-3-yl}-4-(2-methyl-1,3-thiazol-5-yl)-1,3-benzothiazole] | < 2 | > 5 | 100 to 1000 | 100 to 1000 | 100 to 1000 | – | – | –
6 | COc1cc(-c2ccc(-c3ccc(O[C@@H]4C[C@H]5CC[C@@H](C4)N5)nn3)c3scnc23)cnn1 [Compound 362] | 2 to 6 | > 5 | 100 to 1000 | < 100 | 100 to 1000 | – | – | –
7 | Fc1ccn(-c2ccc(-c3ccc(O[C@@H]4C[C@H]5CC[C@@H](C4)N5)nn3)c3scnc23)n1 [Compound 363] | < 2 | 1.5 to 5 | 100 to 1000 | 100 to 1000 | 100 to 1000 | – | – | –
8 | CN(c1ncc(-c2ccc(-n3cccn3)c3[nH]ncc23)nn1)[C@@H]1C[C@H]2CCC[C@@H](C1)N2 [Compound 551] | 2 to 6 | > 5 | – | – | 100 to 1000 | – | – | –
9 | c1cnn(-c2ccc(-c3cnc(N[C@@H]4C[C@H]5CC[C@@H](C4)N5)nn3)c3cn[nH]c23)c1 [Compound 556] | 2 to 6 | > 5 | – | – | 100 to 1000 | – | – | –
10 | c1cnn(-c2ccc(-c3cnc(N[C@@H]4C[C@H]5CCC[C@@H](C4)N5)nn3)c3cn[nH]c23)c1 [Compound 561] | 2 to 6 | > 5 | – | – | 100 to 1000 | – | – | –
11 | CC(C)(C)C1CN(c2ncc(-c3ccc(-n4cccn4)c4[nH]ncc34)nn2)CCN1 (stereo not shown) [Compound 572] | < 2 | < 1.5 | – | – | 100 to 1000 | – | – | –
12 | CN(c1ncc(-c2ccc(-n3cncn3)c3[nH]ncc23)nn1)[C@@H]1C[C@H]2CCC[C@@H](C1)N2 [Compound 574] | < 2 | > 5 | – | – | 100 to 1000 | – | – | –
13 | CN(c1ncc(-c2ccc(-n3ccnn3)c3[nH]ncc23)nn1)[C@@H]1C[C@H]2CCC[C@@H](C1)N2 [Compound 576] | < 2 | > 5 | – | – | 1000 to 10000 | – | – | –
14 | Cc1ncc(-c2ccc(-c3cnc(N(C)[C@@H]4C[C@H]5CCC[C@@H](C4)N5)nn3)c3scnc23)s1 [Compound 578] | < 2 | > 5 | – | – | 100 to 1000 | – | – | –
15 | Cc1nc(-c2ccc(-c3cnc(N(C)[C@@H]4C[C@H]5CCC[C@@H](C4)N5)nn3)c3scnc23)cs1 [Compound 579] | < 2 | > 5 | – | – | 1000 to 10000 | – | – | –
16 | Cc1cc(-c2ccc(-c3cnc(N(C)[C@@H]4C[C@H]5CCC[C@@H](C4)N5)nn3)c3scnc23)sn1 [Compound 580] | < 2 | > 5 | – | – | 100 to 1000 | – | – | –
17 | CC(C)(C)[C@H]1CN(c2ncc(-c3ccc(-n4cccn4)c4[nH]ncc34)nn2)CCN1 [Compound 581] | 2 to 6 | < 1.5 | – | – | 100 to 1000 | – | – | –
18 | COc1nc(-c2ccc(N(C)[C@@H]3C[C@H]4CC[C@@H](C3)N4)nn2)ccc1-c1cn[nH]c1 [Compound 906] | < 2 | > 5 | – | – | – | – | – | 100 to 1000
